Measured values as given in PubChem BioAssay (NCI).
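In this assay, cells in 96-well plates receive the compound at five concentrations for 48 hours. Endpoints are linearly interpolated between the surrounding concentrations. At the GI50, growth is halved. At the TGI there is no net growth.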

How the values were obtained:
Assay in all cases: inhibition of tumour cell growth, NCI panel, 48 h
CAKI-1 renal = test system: CAKI-1 renal
COLO 205 colon = test system: COLO 205 colon
SW-620 colon = test system: SW-620 colon
PC-3 prostate = test system: PC-3 prostate
NCI/ADR-RES ovarian = test system: NCI/ADR-RES ovarian
NCI-H226 lung = test system: NCI-H226 lung
SNB-19 CNS = test system: SNB-19 CNS
OVCAR-3 ovarian = test system: OVCAR-3 ovarian
KM12 colon = test system: KM12 colon
HT29 colon = test system: HT29 colon

SMILES | TGI (CAKI-1 renal) [µM] | TGI (COLO 205 colon) [µM] | TGI (SW-620 colon) [µM] | TGI (PC-3 prostate) [µM] | TGI (NCI/ADR-RES ovarian) [µM] | TGI (NCI-H226 lung) [µM] | TGI (SNB-19 CNS) [µM] | TGI (OVCAR-3 ovarian) [µM] | TGI (KM12 colon) [µM] | TGI (HT29 colon) [µM] | GI50 (CAKI-1 renal) [µM] | GI50 (COLO 205 colon) [µM] | GI50 (SW-620 colon) [µM] | GI50 (PC-3 prostate) [µM] | GI50 (NCI/ADR-RES ovarian) [µM] | GI50 (NCI-H226 lung) [µM] | GI50 (SNB-19 CNS) [µM] | GI50 (OVCAR-3 ovarian) [µM] | GI50 (KM12 colon) [µM] | GI50 (HT29 colon) [µM]
CC(=O)NC(CCCCN(Cc1ccccc1)C(=O)N(CCCl)N=O)C(=O)NCc1ccccc1 (stereo unspecified) | 97.7 | 67.2 | > 70.7 | > 100 | 34.3 | > 96.7 | 60.4 | > 100 | 63.7 | > 72.4 | – | – | – | – | – | – | – | – | – | –
Cc1cn2c(/C=C3/C(=O)Nc4ccc(F)cc43)c(C)nc2s1 | > 50 | > 50 | > 50 | > 50 | 7.26 | > 50 | > 50 | > 50 | > 50 | 14.9 | 9.21 | 1.91 | 3.18 | 9.51 | 1.7 | 17.1 | 5.56 | 3.5 | 2.34 | 1.68
O=C(Nc1nc(-c2ccc(Cl)cc2)nc2c1sc(=S)n2-c1ccccc1)C(F)(F)F | 16 | 32.6 | 26.3 | 71.4 | 19.3 | 9.61 | 37.5 | 6.97 | > 100 | > 100 | 4 | 3.54 | 4.34 | 8.95 | 3.58 | 2.89 | 7.18 | 2.81 | 4.89 | 3.73
CC[C@]12C=CCN3CC[C@@]4(c5ccc(OC)cc5N(C)[C@H]4[C@@](O)(C(=O)OC)[C@@H]1OC(=O)CCC(=O)N[C@H](Cc1c[nH]c4ccccc14)C(=O)OC)[C@@H]32 | 17 | 14.3 | 10.6 | 17 | 37.8 | 27.5 | 48.8 | 16.4 | 36 | 14.4 | 3.65 | 3.47 | 3.03 | 2.95 | 11.3 | 5.39 | 4.74 | 3.8 | 10.1 | 3.11
CC1=NN(C(=O)c2ccncc2)C(=O)C1N=Nc1ccc2ccccc2c1 (stereo unspecified) | > 100 | > 100 | > 100 | > 100 | > 100 | > 100 | > 100 | > 100 | > 100 | > 100 | – | – | – | – | – | – | – | – | – | –
CC(C)(C)c1ccc(O)c(CN(Cc2cc(C(C)(C)C)ccc2O)C2CCCCC2)c1 | > 70.1 | 6.81 | 35.1 | 46.8 | 42.1 | > 100 | 41 | 34.9 | 41.2 | 37.1 | – | – | – | – | – | 28.5 | – | – | – | –
O=C(NNC(=S)Nc1ccccc1)c1ccccn1 | > 100 | > 100 | > 100 | > 100 | > 100 | > 100 | > 100 | > 100 | > 100 | > 100 | 1.37 | 4.05 | 4.54 | 2.87 | 2.84 | 3.3 | 2.95 | 6.83 | 3.9 | 4.17
